Literature values as cited in patent US20250326722A1 (SHANGHAI HANSOH BIOMEDICAL CO., LTD., priority 2022, published 2025).

System: LDL-C
Details: combined with a statin; cited from earlier work

In the case of O=C1[C@H](CC[C@H](O)c2ccc(F)cc2)[C@@H](c2ccc(O)cc2)N1c1ccc(F)cc1 [Ezetimibe], the LDL-C reduction is listed as 15-20%.
